The numbers were not newly measured in paper PMC8491563 (Journal of controlled release : official journal of the …, 2020), which cites them from elsewhere.

This data set concerns CCR2. The settings on record: in conjunction with nab-paclitaxel/gemcitabine, 21 treated patients.

The structures appear in SMILES notation.

On to `O=C(NCC(=O)N1CC[C@H](N[C@H]2CC[C@@](O)(c3ccc(-c4ncccn4)cn3)CC2)C1)c1cccc(C(F)(F)F)c1` [PF-04136309], for which the “patients responding with a reduction in tumor size compared to the baseline” value was 23.8%.
